pIC50: −log10 of the molar value.

As a reminder, the pIC50 is the negative decadic logarithm of the IC50, by convention in mol/L.

Chain of Sodium-dependent noradrenaline transporter (P23975 whole entry): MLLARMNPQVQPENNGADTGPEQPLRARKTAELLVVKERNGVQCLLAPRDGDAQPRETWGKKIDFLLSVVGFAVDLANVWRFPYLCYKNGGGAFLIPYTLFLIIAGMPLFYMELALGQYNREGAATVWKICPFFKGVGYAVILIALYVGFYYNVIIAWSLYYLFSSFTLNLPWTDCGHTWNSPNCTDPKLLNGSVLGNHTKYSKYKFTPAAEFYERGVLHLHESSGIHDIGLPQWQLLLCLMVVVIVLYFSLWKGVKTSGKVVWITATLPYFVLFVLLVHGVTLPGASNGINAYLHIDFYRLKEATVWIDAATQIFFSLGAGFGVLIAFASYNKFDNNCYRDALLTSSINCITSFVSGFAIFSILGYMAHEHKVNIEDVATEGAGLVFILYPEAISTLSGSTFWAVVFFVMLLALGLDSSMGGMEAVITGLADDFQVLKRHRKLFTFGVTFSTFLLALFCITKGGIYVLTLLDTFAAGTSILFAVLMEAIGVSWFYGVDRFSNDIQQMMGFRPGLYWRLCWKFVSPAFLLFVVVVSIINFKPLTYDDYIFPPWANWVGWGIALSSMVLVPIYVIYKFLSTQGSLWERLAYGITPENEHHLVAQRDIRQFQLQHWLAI

This assay addresses Sodium-dependent noradrenaline transporter (Homo sapiens, UniProt P23975). The assay can be described thus: Inhibition of NET (unknown origin) expressed in Jump In T-REx HEK293 cells assessed as decrease in norepinephrine-induced cellular response preincubated for 1 hr followed by norepinephrine stimulation measured for 30 mins by TRACT assay. The assay is classed as cell-based.
Take `Clc1ccc(C2CCCC2NCc2ccccc2)cc1Cl` (configuration not stated): the pIC50 is 6.20.
For the compound `CCCCNC1CCCC1c1ccc(Cl)c(Cl)c1` (configuration not stated), the pIC50 is 6.60.
For `COCCCCNC1CCCC1c1ccc(Cl)c(Cl)c1` (configuration not stated) the value was 7.00.
Consider `CNCCCCNC1CCCC1c1ccc(Cl)c(Cl)c1` (configuration not stated), for which the pIC50 was 6.50.
The same measure for `OCCNC1CCCC1c1ccc(Cl)c(Cl)c1` (configuration not stated): 7.10.
For `OCCCCNC1CCCCC1c1ccc(Cl)c(Cl)c1` (configuration not stated) the value was 6.30; for `COC(=O)CCCNC1CCCC1c1ccc(Cl)c(Cl)c1` (configuration not stated), 6.80.

The values above are taken from ChEMBL document CHEMBL6134791, “Stereochemical optimization of N,2-substituted cycloalkylamines as norepinephrine reuptake inhibitors” (RSC Med Chem, 2024).
